From patent US20250108038A1 (priority 2023, published 2025)

Key:
Wistar rats = assay: Five Choice Serial Reaction Time Task, vSD version, repeated administration; assay type: in vivo, Wistar rat; parameters: Latency (Correct) / Latency (Incorrect): unit not given here; details: for Latency (Correct) / Latency (Incorrect) / Magazine Head Entries / Omissions / Reward Latency / Trials Completed: vSD, mean ± SEM
Source text: The behavioral tasks utilized were three versions of the rat Five Choice Serial Reaction Time Task (5C-SRTT), the standard version of the task (STD) with a fixed stimulus duration and a fixed intertrial interval, the variable stimulus duration (vSD) and the variable intertrial interval (vITI) version. The principal readout parameters in each task were the % Hit and the % correct choices (measures of sustained attention) and three measures of inhibitory response control (premature, perseverative, and timeout responses), although a number of additional outcome measures were obtained (see under Methods and Results below).
Twenty-four adult (approx. 10 months old) male Wistar rats (Envigo, Inc, Indianapolis, IN) were used in the study. […] Subjects were double housed in polycarbonate cages (45×30×18 cm) with corncob bedding in a vivarium of constant temperature (21-23° C.) and humidity (40-50%). […] All behavioral testing was performed during the light portion (9 a.m.-5 p.m.) of the light/dark cycle (Monday thru Friday). Animals were cared for in accordance with the Guide for the Care and Use of Laboratory Animals (U.S. National Institutes of Health) and the experimental protocols were approved by the Institutional Animal Care and Use Committee at Augusta University (Protocol #2010-0044).
The 5C-SRTT procedure (reviewed, Robbins, 2002. Psychopharmacology (Berl); 163(3-4):362-80) was conducted as we have described previously (Terry et al., 2014, Neurotoxicology and Teratology 44:18-29, 2014; Callahan et al., 2020, Neuropharmacology. August 15; 173:107994). […] Animals were trained in eight automated 5C-SRTT operant chambers (Med Associates, St. Albans, VT, USA), controlled by MedPC software (Med Associates). Briefly, each operant chamber was equipped with 5 apertures containing a photocell beam to detect nose pokes and a lamp (2.8 W) that could be illuminated randomly at varying durations. Food pellets (45 mg chow pellet, BioServ, Frenchtown, NJ, USA) were delivered automatically to a magazine, located on the opposite wall to the nose pokes, that was also equipped with a light that turned on to indicate that a pellet had been dispensed. The house-light remained on for the entire session unless an error or omission occurred. Training sessions began with the delivery of a food reward and retrieval triggered the first trial. […] Sessions ended when 40 minutes had lapsed or 100 trials had been completed.
For this study, subjects were re-trained 5 days per week until they re-established a stable performance criteria with a fixed (1.0 sec) stimulus duration and a fixed ITI (5 sec) of 70-75% accuracy, <20% omissions and completion of all 100 trials for 5 consecutive days. Upon meeting these performance criteria animals were trained for one additional week and two groups of subjects (N=12) were assembled and balanced according to their performance accuracy, specifically the % Hit evaluation, which takes into account correct responses as well as all incorrect responses including the number of omissions. […] The vSD version of the task increases the attentional load while the vITI increases impulsivity-like behavior. The following outcome measures and behavioral domains were assessed: % Hit and % correct=sustained attention; omissions=attention/motivation; premature responses=impulsivity; perseverative responses=compulsivity; timeout responses=cognitive inflexibility; magazine head entries=appetitive motivation and compulsivity-like behavior; response latencies=information processing speed and/or motivation. For the STD version of the task, the stimulus duration (SD) was fixed at 1.0 sec and the ITI was fixed at 5 sec. In the vSD version of the task the following stimulus durations were presented in a pseudorandom manner: 0.3, 0.6, and 0.9 sec. In the vITI version, 2.5, 5.0, and 10.0 sec ITIs were employed in a pseudorandom manner. […]

CYP2D6 = CYP2D6 (Homo sapiens, UniProt P10635)
Chain of CYP2D6 (P10635 whole entry): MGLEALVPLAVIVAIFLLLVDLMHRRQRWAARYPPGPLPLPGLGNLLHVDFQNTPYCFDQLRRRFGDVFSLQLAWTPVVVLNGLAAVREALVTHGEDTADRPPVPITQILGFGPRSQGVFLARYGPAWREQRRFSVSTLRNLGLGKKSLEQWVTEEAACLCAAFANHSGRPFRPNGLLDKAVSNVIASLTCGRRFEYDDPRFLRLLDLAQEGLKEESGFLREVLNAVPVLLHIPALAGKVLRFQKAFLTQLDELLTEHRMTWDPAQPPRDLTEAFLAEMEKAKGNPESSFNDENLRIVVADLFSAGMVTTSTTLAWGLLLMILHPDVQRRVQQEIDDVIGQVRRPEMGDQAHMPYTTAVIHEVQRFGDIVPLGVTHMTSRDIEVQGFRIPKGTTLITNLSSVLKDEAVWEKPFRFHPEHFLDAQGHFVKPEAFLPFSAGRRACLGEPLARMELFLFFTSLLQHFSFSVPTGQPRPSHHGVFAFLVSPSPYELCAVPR

CYP2B6 = biological target: T1, CYP2B6 (Homo sapiens, UniProt P20813); assay: in vitro; details: both, pH 7.4
T1 sequence (P20813 1-491): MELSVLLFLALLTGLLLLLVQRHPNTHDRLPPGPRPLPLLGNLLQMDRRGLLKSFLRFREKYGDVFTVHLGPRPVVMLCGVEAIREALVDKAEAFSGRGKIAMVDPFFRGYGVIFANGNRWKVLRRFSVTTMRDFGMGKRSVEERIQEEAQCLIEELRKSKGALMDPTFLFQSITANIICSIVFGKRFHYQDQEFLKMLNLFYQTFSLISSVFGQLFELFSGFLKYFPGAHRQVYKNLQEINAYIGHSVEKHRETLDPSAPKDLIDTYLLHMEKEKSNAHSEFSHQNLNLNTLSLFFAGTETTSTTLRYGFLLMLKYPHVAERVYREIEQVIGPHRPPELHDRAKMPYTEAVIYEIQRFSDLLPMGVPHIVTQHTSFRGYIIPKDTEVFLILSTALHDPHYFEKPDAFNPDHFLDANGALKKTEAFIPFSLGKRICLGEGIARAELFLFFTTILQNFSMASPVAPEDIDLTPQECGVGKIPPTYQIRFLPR

[1] = Group 1, 0.1 mg/kg, Drug Exp period
[2] = Group 1, 0.1 mg/kg, Post-Drug Exp (vehicle washout) period
[3] = Group 2, 0.3 mg/kg, Drug Exp period
[4] = Group 2, 0.3 mg/kg, Post-Drug Exp (vehicle washout) period

SMILES: Clc1ccc(C2(OCC3OCCO3)c3ccccc3C3=NCCN32)cc1 (centres unmarked) [Compound I-19]
- % Hit (Wistar rats; repeated 0.1 and 0.3 mg/kg IP): modest decrease in accuracy that was limited to the 0.6 sec stimulus duration
- premature responses (Wistar rats; repeated 0.1 and 0.3 mg/kg IP): reduced the number of premature responses compared to post-drug conditions
- Latency (Correct) (Wistar rats; [1]): 0.99
- Latency (Incorrect) (Wistar rats; [1]): 2.17
- Magazine Head Entries (Wistar rats; [1]): 168.21 ± 10.60
- Omissions (Wistar rats; [1]): 15.79
- Reward Latency (Wistar rats; [1]): 2.44
- Trials Completed (Wistar rats; [1]): 94.17 ± 2.75
- Latency (Correct) (Wistar rats; [2]): 0.86 ± 0.03
- Latency (Incorrect) (Wistar rats; [2]): 1.90 ± 0.09
- Magazine Head Entries (Wistar rats; [2]): 189.79 ± 14.47
- Omissions (Wistar rats; [2]): 8.12 ± 1.63
- Reward Latency (Wistar rats; [2]): 2.13
- Trials Completed (Wistar rats; [2]): 97.79 ± 2.21
- Latency (Correct) (Wistar rats; [3]): 0.91
- Latency (Incorrect) (Wistar rats; [3]): 2.21
- Magazine Head Entries (Wistar rats; [3]): 208.46 ± 28.88
- Omissions (Wistar rats; [3]): 14.08
- Reward Latency (Wistar rats; [3]): 2.99
- Trials Completed (Wistar rats; [3]): 98.29 ± 0.84
- Latency (Correct) (Wistar rats; [4]): 0.76
- Latency (Incorrect) (Wistar rats; [4]): 1.65 ± 0.08
- Magazine Head Entries (Wistar rats; [4]): 245.17 ± 33.79
- Omissions (Wistar rats; [4]): 5.79 ± 1.35
- Reward Latency (Wistar rats; [4]): 2.11
- Trials Completed (Wistar rats; [4]): 100.00
- Inhibition at Highest Test Article Concentration (CYP2D6; 2D6, Dextromethorphan, at 50 μM): 84.3 at 50 μM %
- IC50 (CYP2D6; microsomes): 8.7 µM

SMILES: OC1(c2ccc(Cl)cc2)c2ccccc2C2=NCCN21 (centres unmarked) [Compound A, 5-(4-chlorophenyl)-2,3-dihydroimidazo[1,2-b]isoindol-5-ol, reference compound]
- inhibition at 10 µM (CYP2B6): 62%
